In the test the target is T1, Bcl-2-like protein 2 (Homo sapiens, UniProt Q92843).
T1 sequence (Q92843 whole entry): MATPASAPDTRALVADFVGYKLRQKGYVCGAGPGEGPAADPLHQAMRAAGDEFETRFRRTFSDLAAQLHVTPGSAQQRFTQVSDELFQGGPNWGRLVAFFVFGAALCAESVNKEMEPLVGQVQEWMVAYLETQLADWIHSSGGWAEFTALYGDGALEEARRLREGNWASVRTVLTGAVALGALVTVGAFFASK
In words: modulators of Bim-Bcl-W protein interaction, dose response, biochemical, multiplexed, bead-based flow cytometry, fluorescence (AID 1330). (In general: Flow cytometry measures light scatter and fluorescence of single cells or particles in a stream.)

The mark [1] stands for this setting: inactive by the depositor's call.

Where a name gives a salt, the structure may show the parent alone.

By EC50 is commonly meant the concentration needed to bring the measured effect to its halfway point. Higher therefore signals lower potency in that assay. In the case of `CN1CCc2cccc3c2[C@@H]1Cc1ccc(O)c(O)c1-3`, the EC50 was found to be 9.95 µM.

Take `CCN(CC)c1ccc(-c2nn3c(-c4cccnc4)nnc3s2)cc1`: the EC50 under setting [1] is 12 µM.

The molecule `CCOCCCNc1nc(S)nc2cc(OC)c(OC)cc12` had an EC50 under setting [1] of 2.2 µM.

Molecule `COCCNc1[nH]c(=S)nc2cc(OC)c(OC)cc12` came in with an EC50 under setting [1] of 3.86 µM.

For the molecule `CN1CCN(C2=C(Cl)C(=O)C(c3cnc(N4CCCCC4)s3)=C(Cl)C2=O)CC1`, the EC50 under setting [1] is 0.04 µM.

Take `CCOC(=O)c1ccc(Nc2nc(C(=O)OCC)nc3ccccc23)cc1`: the EC50 under setting [1] is 2.67 µM. This EC50 lies about 67-fold higher than the previous one.

For `CCOCCCn1c(N)c(C(=O)Nc2sc3c(c2C(=O)OC)CCCC3)c2nc3ccccc3nc21`, the EC50 under setting [1] amounted to 1.8 µM.

`COc1cccc(CN=Nc2nn3cnnc3c3ccccc23)c1O` showed an EC50 of 0.49 µM.

Under setting [1], `CCN1C(=O)/C(=C/C=C2\C=CN(CC)c3ccccc32)SC1=S` returned an EC50 of 15.9 µM.

On to `Cc1ccc(-c2ccc(/C=C/C(=O)c3ccccc3)o2)cc1`, for which the EC50 under setting [1] came out at 3.56 µM.

As to `CCC(/C=C1\Sc2ccc(OC)cc2N1CCO)=C\c1sc2ccc(OC)cc2[n+]1CCO`, the EC50 turned out to be 22.1 µM.

Under setting [1], `O=S1(=O)N=C(N(CCO)N=C/C=C/c2ccccc2)c2ccccc21` registered an EC50 of 20.6 µM.

Consider `COc1ccc(-n2c(=O)c3ccccc3c3ccccc3c2=O)c(OC)c1`, for which the midpoint of the response under setting [1], the EC50, lay at 16.3 µM. The EC50 values of the last two molecules are within 1.5-fold of each other.

`Cc1nc2ncccn2c1-c1csc(Nc2ccc(O)cc2)n1` had an EC50 of 0.33 µM.

`COc1cc2nc(=S)n(CCCN3CCOCC3)c(N)c2cc1OC`: the EC50 under setting [1] was 9.25 µM.

As to `CN(C)c1ncc(C2=C(Cl)C(=O)C(N3CCCC3)=C(Cl)C2=O)s1`, the midpoint of the response under setting [1], the EC50, lay at 0.05 µM.

Regarding `Cc1ccc(C)c(/C=C/C(=O)c2ccccc(=O)c2O)c1`, the EC50 under setting [1] amounted to 8.51 µM. This EC50 lies about 170-fold higher than the previous one.

Turning to `O=C(NC1=C(Nc2ccc(Cl)cc2)C(=O)c2ccccc2C1=O)c1ccccc1`, under setting [1], the EC50 is 10.1 µM.

`CCN(CC)S(=O)(=O)c1cccc(C(=O)NN=Cc2ccc(O)c(O)c2O)c1` registered an EC50 of 5.13 µM.

`CCOC(=O)c1c(NC(C)=O)sc2c(O)c(Br)cc(Br)c12` gave an EC50 under setting [1] of 40.3 µM.

Take `O=C(Nc1ccc2nc(-c3ccco3)c(-c3ccco3)nc2c1)N1CCN(c2ccccn2)CC1`: under setting [1], the EC50 is 14.9 µM.

`O=C(c1ccccc1)c1ccc2nc(-c3ccco3)c(-c3ccco3)nc2c1`: the EC50 under setting [1] came out at 14.8 µM.

In the case of `CCOc1ccccc1CNc1ccc(O)cc1`, under setting [1], it took 2.31 µM to reach a half-maximal effect (EC50).

Regarding `COCCN=c1scc(-c2ccco2)n1N=Cc1ccc(O)c(O)c1O`, the EC50 was determined as 1.81 µM. That is a single-digit micromolar value.

Under setting [1], `COc1cc2nc(=S)[nH]c(NCCCOC(C)C)c2cc1OC` came in with an EC50 of 9 µM.

Take `CC1N(C)c2cccc3cccc(c23)N1C` [1,2,3-trimethyl-2,3-dihydro-1H-perimidine]: a half-maximal response under setting [1] (EC50) required 2.26 µM.

The molecule `Cc1ccc(CNc2ccc3c(c2)OCO3)c(C)c1` [1,3-benzodioxol-5-yl(2,4-dimethylbenzyl)amine] displayed an EC50 under setting [1] of 44.2 µM.

As for `COCCNC(=S)Nc1cc(OC)c(OC)cc1C#N` [1-(2-cyano-4,5-dimethoxy-phenyl)-3-(2-methoxyethyl)thiourea], under setting [1], the EC50 was determined as 14.5 µM.

For the molecule `Cc1ccc(C(=O)/C=C/c2ccc(-c3ccc(C)cc3)o2)cc1` [1-p-Tolyl-3-(5-p-tolyl-furan-2-yl)-propenone], under setting [1], the 50% effective concentration (EC50) turned out to be 1.02 µM. This EC50 lies about 14-fold lower than the previous one.

`O=C(NCc1ccccc1)c1ccc2nc(-c3ccco3)c(-c3ccco3)nc2c1` [2,3-bis(furan-2-yl)-N-(phenylmethyl)quinoxaline-6-carboxamide]: the EC50 was determined as 6.03 µM.

With `COc1ccc2nc(-c3ccco3)c(-c3ccco3)nc2c1` [2,3-di-2-furyl-6-methoxyquinoxaline], the response under setting [1] was half-maximal at 28.3 µM (EC50).

Turning to `O=C(NCc1ccccn1)c1ccc2nc(-c3ccco3)c(-c3ccco3)nc2c1` [2,3-di-2-furyl-N-(pyridin-2-ylmethyl)quinoxaline-6-carboxamide], the midpoint of the response, the EC50, lay at 7.22 µM.

`O=C(Nc1ccccc1)c1ccc2nc(-c3ccco3)c(-c3ccco3)nc2c1` [2,3-di-2-furyl-N-phenyl-6-quinoxalinecarboxamide]: the EC50 under setting [1] is 18.2 µM.

For the molecule `c1coc(C2=Nc3cccc4cccc(c34)N2)c1` [2-(2-furanyl)-1H-perimidine], the response under setting [1] was half-maximal at 6.62 µM (EC50).

`COc1ccc(CC(=O)Nc2ccc(-c3nc4cc(C)ccc4o3)c(O)c2)cc1OC` [2-(3,4-dimethoxyphenyl)-N-[(4Z)-3-keto-4-(5-methyl-3H-1,3-benzoxazol-2-ylidene)cyclohexa-1,5-dien-1-yl]acetamide] gave an EC50 of 10.1 µM.

Regarding `COc1cc(CNc2ccc3[nH]c(=O)[nH]c3c2)cc(Br)c1OCC(=O)NC(C)(C)C` [2-[2-bromo-6-methoxy-4-[[(2-oxo-1,3-dihydrobenzimidazol-5-yl)amino]methyl]phenoxy]-N-tert-butylacetamide], under setting [1], a half-maximal effect (EC50) was put at 1.47 µM.

`Cc1cc(OCc2cn3cccnc3n2)ccc1Cl` [2-[(4-chloranyl-3-methyl-phenoxy)methyl]imidazo[1,2-a]pyrimidine] registered an EC50 under setting [1] of 19.8 µM.

`Cc1ccc(/C=C/C2=Cc3c(sc(NC(=O)CSc4nnc(N)[nH]4)c3C#N)C(C)(C)C2)o1` [2-[(5-azanyl-1H-1,2,4-triazol-3-yl)sulfanyl]-N-[3-cyano-7,7-dimethyl-5-[(E)-2-(5-methylfuran-2-yl)ethenyl]-6H-1-benzothiophen-2-yl]ethanamide] registered an EC50 under setting [1] of 6.38 µM.

Under setting [1], `O=C(CSc1ccc2nnc(-c3ccccn3)n2n1)Nc1nccs1` [2-[[3-(2-pyridinyl)-[1,2,4]triazolo[4,3-b]pyridazin-6-yl]thio]-N-(2-thiazolyl)acetamide] came in with an EC50 of 14.1 µM. Compared with the last molecule, the EC50 is about 2.2-fold higher.

On to `Cc1ccc(-c2cc(-c3ccc(C)o3)nc(N)c2C#N)cc1` [2-amino-6-(5-methylfuran-2-yl)-4-(4-methylphenyl)pyridine-3-carbonitrile], for which, under setting [1], the EC50 turned out to be 18.5 µM.

In the case of `CCN(CC)c1ccc(NC2=C(Cl)C(=O)c3ccccc3C2=O)cc1` [2-chloro-3-{[4-(diethylamino)phenyl]amino}naphthoquinone], a half-maximal effect under setting [1] (EC50) was put at 0.17 µM.

For the molecule `O=C(/C=C/c1ccccc1Cl)c1ccccc(=O)c1O` [3-[(E)-3-(2-chlorophenyl)prop-2-enoyl]-2-oxidanyl-cyclohepta-2,4,6-trien-1-one], a half-maximal response under setting [1] (EC50) required 11.8 µM.

In turn, `Cc1cc(N)ccc1N1CCCC1` [3-methyl-4-(1-pyrrolidinyl)aniline;hydrochloride] returned an EC50 of 3.96 µM.

The molecule `COc1cc(C2Nc3cccc4cccc(c34)N2)cc(OC)c1O` [4-(2,3-dihydro-1H-perimidin-2-yl)-2,6-dimethoxyphenol] had an EC50 of 3.25 µM.

The molecule `Cc1nc2ncccn2c1-c1csc(Nc2ccccc2)n1` [4-(2-methyl-3-imidazo[1,2-a]pyrimidinyl)-N-phenyl-2-thiazolamine] gave an EC50 under setting [1] of 8.71 µM. This counts as single-digit micromolar.

`CCN(CC)c1ccc(Nc2nc(N3CCOCC3)c3ccccc3n2)cc1` [4-N,4-N-diethyl-1-N-(4-morpholin-4-ylquinazolin-2-yl)benzene-1,4-diamine] had an EC50 under setting [1] of 4.71 µM.

Take `CCOc1cccc(CNc2ccc(O)cc2)c1OCc1ccc(Cl)cc1` [4-[[2-[(4-chlorophenyl)methoxy]-3-ethoxyphenyl]methylamino]phenol]: under setting [1], a half-maximal response (EC50) required 10.2 µM.

On to `Cc1cc(C)nc(SCc2cc(=O)c(OC(=O)c3ccc(Cl)c([N+](=O)[O-])c3)co2)n1` [4-chloro-3-nitrobenzoic acid [6-[[(4,6-dimethyl-2-pyrimidinyl)thio]methyl]-4-oxo-3-pyranyl] ester], for which the midpoint of the response under setting [1], the EC50, lay at 6.18 µM.

`CCc1ccc(/C=C/C(=O)c2cc(Br)ccc(=O)c2O)cc1` [5-bromo-3-[(E)-3-(4-ethylphenyl)-1-oxoprop-2-enyl]-2-hydroxy-1-cyclohepta-2,4,6-trienone] had an EC50 under setting [1] of 52.1 µM.

In turn, `COc1cc2nc(=S)[nH]c(NCC3CCCO3)c2cc1OC` (centres undefined) [6,7-dimethoxy-4-(2-oxolanylmethylamino)-1H-quinazoline-2-thione] returned an EC50 under setting [1] of 4.62 µM.

With `COc1ccc(C2=Nn3c(nnc3-c3ccco3)SC2)cc1OC` [6-(3,4-Dimethoxy-phenyl)-3-furan-2-yl-7H-[1,2,4]triazolo[3,4-b][1,3,4]thiadiazine], under setting [1], the EC50 was determined as 4.24 µM.

Under setting [1], `CN(N=C/C=C/c1ccccc1)C1=NS(=O)(=O)c2ccccc21` [(1E,2E)-3-phenylacrylaldehyde (1,1-dioxido-1,2-benzisothiazol-3-yl)(methyl)hydrazone] came in with a 50% effective concentration (EC50) of 3.67 µM.

The molecule `COc1cc(/C=C2\CC/C(=C\c3cc(OC)c(O)c(OC)c3)C2=O)cc(OC)c1O` [(2E,5E)-2,5-bis[(4-hydroxy-3,5-dimethoxyphenyl)methylidene]cyclopentan-1-one] came in with an EC50 of 3.31 µM.

With `Cc1ccc(-c2ccc(/C=C3\SC(N4CCOCC4)=NC3=O)o2)cc1` [(5Z)-5-[[5-(4-methylphenyl)-2-furanyl]methylidene]-2-(4-morpholinyl)-4-thiazolone], the response under setting [1] was half-maximal at 89 µM (EC50). In other words, the double-digit micromolar range.

In turn, `O=C(/C=C/c1ccc(-c2ccccc2)o1)c1ccccc1` [(E)-1-phenyl-3-(5-phenyl-2-furanyl)-2-propen-1-one] came in with an EC50 under setting [1] of 13.9 µM.

For the molecule `O=C(/C=C\c1ccc(-c2ccccc2)o1)c1ccccc1` [(Z)-1-phenyl-3-(5-phenyl-2-furanyl)-2-propen-1-one], it took 10.6 µM to reach a half-maximal effect under setting [1] (EC50). The EC50 values of the last two molecules are within 1.5-fold of each other.

Turning to `CN1CCc2cccc3c2[C@H]1Cc1ccc(O)c(O)c1-3` [APOMORPHINE HYDROCHLORIDE], the EC50 worked out at 19 µM.

Under setting [1], `COc1cc(C2Nc3cccc4cccc(c34)N2)ccc1OC(C)=O` [Acetic acid 4-(2,3-dihydro-1H-perimidin-2-yl)-2-methoxy-phenyl ester] registered an EC50 of 11.5 µM.

Molecule `COC(=O)CSc1ncnc2c1sc1nc(-c3ccco3)c3c(c12)CC(C)(C)OC3` [MLS000039339] displayed a 50% effective concentration (EC50) under setting [1] of 34 µM.

`CCOc1cc(C2Nc3cccc4cccc(c34)N2)ccc1O` [MLS000068595] gave an EC50 under setting [1] of 31.7 µM.

`O=C1c2ccccc2-c2onc3ccc(NCc4ccco4)c1c23` [MLS000080234]: the EC50 came to 8.37 µM. That is a single-digit micromolar value.

Under setting [1], `Cc1cc(-c2nnc3n2N=C(c2ccc(-c4ccccc4)cc2)CS3)[nH]n1` [MLS000082991] yielded an EC50 of 7.58 µM. That is a single-digit micromolar value.

In turn, `Cc1cc2n(c1)CCn1c(C)ccc1-2` [MLS000104384] registered an EC50 under setting [1] of 13.6 µM.

`CCOC(=O)C1CCN(C(=O)Nc2ccc3nc(-c4ccco4)c(-c4ccco4)nc3c2)CC1` [MLS000113285] yielded a concentration for a half-maximal effect (EC50) of 4.93 µM.

Values taken from BindingDB's records for doi:10.7270/Q2BR8QM3 (Nmmlsc, 2008).
